Source: patent US8999389B2, “Bioresorbable controlled-release composition” (priority 2006, dated 2015)

Assay: Intravenous bolus dosing of 2-hydroxyflutamide in dogs, plasma concentration
Type: in vivo, Labrador dogs
Details: single intravenous bolus 25 mg
Method: First, an animal study was performed with 4 sexually mature Labrador dogs, aged 1 year, under approval by the Animal Ethics Committee of University of Gothenburg.
The male dogs (Labrador) were first given an intravenous single bolus dose of 2-hydroxyflutamide or 25 mg (10 ml solution) per animal during 30 seconds. The composition of the intravenous solution was sterile saline 54%, sterile polyethyleneglycol 400, 46% and 6% ethanol (95%).
After injection into vena jugularis, blood samples were taken at predetermined time points during 10 hours.

- time after which plasma concentration was below the detection limit: about 10 hrs
SMILES: CC(C)(O)C(=O)Nc1ccc([N+](=O)[O-])c(C(F)(F)F)c1 [2-hydroxyflutamide]
